The experiment deals with T1, cereblon (NanoLuc-CRBN) (Homo sapiens, UniProt Q96SW2).
T1 construct: host or cells: HEK293T
Nature of the experiment: NanoBRET CRBN Cellular Target Engagement Assay. It is filed as binding. The conditions noted are these: compound tested at 10 μM, HEK293T cells transfected with NanoLuc-CRBN, 2 hr incubation; for remaining activity at 10 µM: lower = higher affinity, read-out: % tracer bound At the end of assay; for inhibition at 10 µM: read-out: % tracer removed From CBLN. An excerpt: The following example measures the extent to which a test compound of this invention binds to cereblon. In this example, a commercially available cereblon binding test kit (Promega Corporation, Madison, Wis., USA) was used but adapted to a 384 well format.
The kit comprises a tracer that binds to cereblon to form a tracer-cereblon complex. This complex is reversible. Upon addition of the test compound, competition between the tracer and the test compound for the binding site(s) on cereblon occurs. The extent of tracer release from cereblon correlates to the affinity of test compound to bind to cereblon. The higher the affinity, the more tracer is released from cereblon.
The assay is a homogenous cell-based assay that used bioluminescence resonance energy transfer (BRET) to measure cereblon target compound binding which causes loss of BRET. Lower BRET values correlate to higher loss of tracer bound to cereblon and, accordingly, higher the levels of target compound binding to cereblon.
The specifics of the assay include HEK293T cells were transfected with a NanoLuc-CRBN expression plasmid using Fugene as described. Approximately 24 hr later, transfected cells were washed with 1× Phosphate Buffered Saline (PBS) and harvested using trypsin. Cells were resuspended in Opti-MEM (available from Thermo Fisher Scientific) at a concentration of 2×10^5 cells/mL. A ratio of 1 part 100× Tracer to 4 parts NanoBRET Tracer Dilution Buffer was used to make a 20× Tracer stock. Next, 40 μl cells per well containing 1× tracer was dispensed into 384 well white tissue culture treated plates. Compounds were then dispensed using a D330e Digital Dispenser (Tecan Trading AG) and plates were allowed to incubate for 2 hr at 37° C., 5% CO2. Immediately prior to BRET measurements, a 3× Complete NanoBret Nano-Glo Substrate stock in Opti-MEM was prepared and 20 μl per well of substrate was subsequently added to the assay plates. Following a 2-3 minute incubation at room temperature, donor (450 nm) and acceptor (610 nm) emission values were read on a CLARIOStar multimode plate reader (BMG) in luminescence mode. Data were converted to milliBRET units by dividing acceptor emission values by donor emission and multiplying by 1000. […]
A general note: Bioluminescence resonance energy transfer reports proximity on the nanometre scale.

T1 sequence (Q96SW2 whole entry): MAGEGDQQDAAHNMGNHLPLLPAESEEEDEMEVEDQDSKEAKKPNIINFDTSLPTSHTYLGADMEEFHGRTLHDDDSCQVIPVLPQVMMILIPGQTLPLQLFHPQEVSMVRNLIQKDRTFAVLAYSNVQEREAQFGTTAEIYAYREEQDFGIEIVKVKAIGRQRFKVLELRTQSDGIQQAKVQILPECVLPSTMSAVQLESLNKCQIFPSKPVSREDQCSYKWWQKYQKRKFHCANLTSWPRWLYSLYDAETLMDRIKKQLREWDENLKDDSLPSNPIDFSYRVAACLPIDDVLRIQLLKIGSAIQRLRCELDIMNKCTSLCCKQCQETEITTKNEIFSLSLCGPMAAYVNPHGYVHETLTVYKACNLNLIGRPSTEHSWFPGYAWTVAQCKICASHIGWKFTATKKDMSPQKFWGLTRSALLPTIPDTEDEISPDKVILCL

As for `COc1ccccc1CNc1cccc2nc(C)n(C3CCC(=O)NC3=O)c(=O)c12` (stereo not shown) [Example 2, 3-(5-((2-methoxybenzyl)amino)-2-methyl-4-oxoquinazolin-3(4H)-yl)piperidine-2,6-dione], the remaining activity at 10 µM turned out to be 47.4% and the inhibition at 10 µM amounted to 52.6%.

Turning to `COc1cccc(CNc2cccc3nc(C)n(C4CCC(=O)NC4=O)c(=O)c23)c1` (stereo not shown) [Example 3, 3-(5-((3-methoxybenzyl)amino)-2-methyl-4-oxoquinazolin-3(4H)-yl)piperidine-2,6-dione], the remaining activity at 10 µM is 27.3% and the inhibition at 10 µM was determined as 72.7%.

On to `Cc1nc2cccc(NCc3ccccc3F)c2c(=O)n1C1CCC(=O)NC1=O` (stereo not shown) [Example 6, 3-(5-((2-fluorobenzyl)amino)-2-methyl-4-oxoquinazolin-3(4H)-yl)piperidine-2,6-dione], for which the remaining activity at 10 µM turned out to be 26.6% and the inhibition at 10 µM amounted to 73.4%.

`Cc1ccc(CNc2cccc3nc(C)n(C4CCC(=O)NC4=O)c(=O)c23)cc1` (stereo not shown) [Example 8, 3-(2-methyl-5-((4-methylbenzyl)amino)-4-oxoquinazolin-3(4H)-yl)piperidine-2,6-dione]: the remaining activity at 10 µM is 47.7% and the inhibition at 10 µM turned out to be 52.3%.

Consider `Cc1nc2cccc(NCc3ccccc3Cl)c2c(=O)n1C1CCC(=O)NC1=O` (stereo not shown) [Example 9, 3-(5-((2-chlorobenzyl)-amino)-2-methyl-4-oxoquinazolin-3(4H)-yl)piperidine-2,6-dione], for which the remaining activity at 10 µM was 30.2% and the inhibition at 10 µM is 69.8%.

Take `Cc1nc2cccc(NCc3cccc(Cl)c3)c2c(=O)n1C1CCC(=O)NC1=O` (stereo not shown) [Example 10, 3-(5-((3-chlorobenzyl)-amino)-2-methyl-4-oxoquinazolin-3(4H)-yl)piperidine-2,6-dione]: the remaining activity at 10 µM was found to be 20.2% and the inhibition at 10 µM was determined as 79.8%.

As for `Cc1ccccc1CNc1cccc2nc(C)n(C3CCC(=O)NC3=O)c(=O)c12` (stereo not shown) [Example 11, 3-(5-((2-methylbenzyl)-amino)-2-methyl-4-oxoquinazolin-3(4H)-yl)piperidine-2,6-dione], the remaining activity at 10 µM is 30.2% and the inhibition at 10 µM was 69.8%.

Take `COc1ccc(CNc2cccc3nc(C)n(C4CCC(=O)NC4=O)c(=O)c23)cc1OC` (stereo not shown) [Example 12, 3-(5-((3,4-dimethoxy-benzyl)-amino)-2-methyl-4-oxoquinazolin-3(4H)-yl)piperidine-2,6-dione]: the remaining activity at 10 µM came out at 0% and the inhibition at 10 µM came out at 100%.

As to `Cc1nc2cccc(NCc3ccccc3C#N)c2c(=O)n1C1CCC(=O)NC1=O` (stereo not shown) [Example 13, 3-(5-((2-cyanobenzyl)-amino)-2-methyl-4-oxoquinazolin-3(4H)-yl)piperidine-2,6-dione], the remaining activity at 10 µM was found to be 16% and the inhibition at 10 µM was 84%.

As to `Cc1nc2cccc(NCc3ccc(C#N)cc3)c2c(=O)n1C1CCC(=O)NC1=O` (stereo not shown) [Example 14, 3-(5-((4-cyanobenzyl)-amino)-2-methyl-4-oxoquinazolin-3(4H)-yl)piperidine-2,6-dione], the remaining activity at 10 µM came to 11.5% and the inhibition at 10 µM worked out at 88.5%.

With `Cc1nc2cccc(NCc3ccc(C(F)(F)F)cc3)c2c(=O)n1C1CCC(=O)NC1=O` (stereo not shown) [Example 15, 3-(5-((4-trifluoromethyl-benzyl)-amino)-2-methyl-4-oxoquinazolin-3(4H)-yl)piperidine-2,6-dione], the remaining activity at 10 µM worked out at 23.9% and the inhibition at 10 µM amounted to 76.1%.

Take `COc1cc(CNc2cccc3nc(C)n(C4CCC(=O)NC4=O)c(=O)c23)cc(OC)c1` (stereo not shown) [Example 16, 3-(5-((3,5-dimethoxy-benzyl)-amino)-2-methyl-4-oxoquinazolin-3(4H)-yl)piperidine-2,6-dione]: the remaining activity at 10 µM was found to be 20.9% and the inhibition at 10 µM worked out at 79.1%.

In the case of `COc1ccc(CNc2cccc3nc(C)n(C4CCC(=O)NC4=O)c(=O)c23)c(OC)c1` (stereo not shown) [Example 17, 3-(5-((2,4-dimethoxy-benzyl)-amino)-2-methyl-4-oxoquinazolin-3(4H)-yl)piperidine-2,6-dione], the remaining activity at 10 µM was determined as 34.8% and the inhibition at 10 µM was found to be 65.2%.

On to `Cc1nc2cccc(NCc3c(Cl)cccc3Cl)c2c(=O)n1C1CCC(=O)NC1=O` (stereo not shown) [Example 18, 3-(5-((2,6-dichlorobenzyl)-amino)-2-methyl-4-oxoquinazolin-3(4H)-yl)piperidine-2,6-dione], for which the remaining activity at 10 µM was 21.3% and the inhibition at 10 µM was 78.7%.

As to `COc1ccc(OC)c(CNc2cccc3nnn(C4CCC(=O)NC4=O)c(=O)c23)c1` (stereo not shown) [Example 19, 3-(5-((2,5-dimethoxybenzyl)amino)-4-oxobenzo[d][1,2,3]triazin-3(4H)-yl)piperidine-2,6-dione], the remaining activity at 10 µM stood at 29.7% and the inhibition at 10 µM came to 71.3%.

Regarding `Cc1nc2cccc(NCc3cc(Cl)ccc3Cl)c2c(=O)n1C1CCC(=O)NC1=O` (stereo not shown) [Example 20, 3-(5-((2,5-dichlorobenzyl)amino)-2-methyl-4-oxoquinazolin-3(4H)-yl)piperidine-2,6-dione], the remaining activity at 10 µM turned out to be 12.1% and the inhibition at 10 µM was determined as 87.9%.

Turning to `Cc1nc2cccc(NCc3ccc(CO)cc3)c2c(=O)n1C1CCC(=O)NC1=O` (stereo not shown) [Example 21, 3-(5-((4-(hydroxymethyl)benzyl)amino)-2-methyl-4-oxoquinazolin-3(4H)-yl)piperidine-2,6-dione], the remaining activity at 10 µM was 9.9% and the inhibition at 10 µM was determined as 90.1%.

The values are drawn from patent publication US11807620B2, “Quinazolinone compounds and related compounds” (PLEXIUM, INC., priority 2020, dated 2023).
